Here are results for eight compounds from PubChem BioAssay (NCI).

Some test systems named below: BT-549 breast; EKVX NSCLC; MALME-3M melanoma; NCI-H226 lung; OVCAR-8 ovarian; SF-539 CNS; SW-620 colon; TK-10 renal; U251 CNS; UO-31 renal.
What all share (experiment): DTP human tumour cell line panel, 48 h

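The compound was tested at five concentrations on cells cultured in 96-well plates, with a 48-hour exposure period. GI50 is the concentration that inhibits growth by half. TGI: concentration producing complete growth inhibition.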

As a reminder, the GI50 is the concentration giving 50% growth inhibition. One may read the TGI as the concentration at which net growth stops. For `Fc1cccc(-n2ccc(-c3ccccc3)nc2=S)c1`, the GI50 in the experiment on BT-549 breast was 10.4 µM; in the experiment with EKVX NSCLC, 17.7 µM; with MALME-3M melanoma, 65.3 µM; in the experiment on NCI-H226 lung, 18.1 µM; with OVCAR-8 ovarian, 26.6 µM; in the experiment with SF-539 CNS it was 17.6 µM. Further, the GI50 in the experiment with SW-620 colon was > 100 µM; in the experiment with TK-10 renal, 18.2 µM; with U251 CNS it was 43.2 µM; with UO-31 renal, 15.1 µM. In addition, the TGI is 26 µM in the experiment with BT-549 breast; 33.4 µM in the experiment on EKVX NSCLC; > 100 µM in the experiment on MALME-3M melanoma; 36.5 µM with NCI-H226 lung; > 57.7 µM with OVCAR-8 ovarian; 38.9 µM in the experiment on SF-539 CNS. Further, the TGI was > 100 µM in the experiment on SW-620 colon, 36 µM in the experiment on TK-10 renal, > 100 µM with U251 CNS and 30 µM in the experiment with UO-31 renal.
On to `O=C1C=CC(=O)N1c1cccc(N2C(=O)C=CC2=O)c1`, for which the GI50 with BT-549 breast was 7.51 µM; with EKVX NSCLC, 19.1 µM; in the experiment on MALME-3M melanoma, 3 µM; in the experiment on NCI-H226 lung, 2.91 µM; with OVCAR-8 ovarian, 2.25 µM; in the experiment with SF-539 CNS it was 1.84 µM. Also, the GI50 is 1.99 µM with SW-620 colon, 1.71 µM with TK-10 renal, 11.4 µM in the experiment with U251 CNS and 1.94 µM in the experiment on UO-31 renal. The TGI with BT-549 breast is 20.2 µM; with EKVX NSCLC, 83.1 µM; with MALME-3M melanoma, 6.94 µM; with NCI-H226 lung, 7.63 µM; with OVCAR-8 ovarian, 5.17 µM; in the experiment on SF-539 CNS, 3.46 µM. Besides, the TGI in the experiment with SW-620 colon worked out at 3.87 µM; in the experiment on TK-10 renal, 3.13 µM; in the experiment on U251 CNS it was 25.2 µM; in the experiment on UO-31 renal it was 4.11 µM.
Turning to `CCN(CC)C(=S)SCN1C(=O)c2ccccc2S1(=O)=O`, the GI50 in the experiment on BT-549 breast is 63.4 µM; in the experiment with EKVX NSCLC it was > 100 µM; in the experiment with MALME-3M melanoma, > 48.7 µM; in the experiment with NCI-H226 lung, 65.5 µM; with OVCAR-8 ovarian it was > 57.9 µM; with SF-539 CNS, 41.7 µM. Besides, the GI50 in the experiment with SW-620 colon was 43 µM; in the experiment with TK-10 renal, > 52.4 µM; with U251 CNS it was 52.5 µM; in the experiment with UO-31 renal, 53.9 µM. Besides, the TGI was > 100 µM in the experiment on BT-549 breast; > 100 µM in the experiment with EKVX NSCLC; 97.6 µM with MALME-3M melanoma; > 100 µM in the experiment with NCI-H226 lung; > 100 µM in the experiment with OVCAR-8 ovarian; > 100 µM in the experiment on SF-539 CNS. Moreover, the TGI in the experiment with SW-620 colon, in the experiment with TK-10 renal, in the experiment on U251 CNS and with UO-31 renal was > 100 µM in each case.
Regarding `Cc1cc(N2CCOCC2)nc(N(CCCNc2ccnc3cc(Cl)ccc23)Cc2ccco2)n1`, the GI50 was 2.3 µM in the experiment with BT-549 breast; 3.73 µM in the experiment on EKVX NSCLC; 2.47 µM with MALME-3M melanoma; 12 µM in the experiment with NCI-H226 lung; 3.15 µM with OVCAR-8 ovarian; 1.95 µM in the experiment on SF-539 CNS. For the same compound, the GI50 is 2.73 µM in the experiment on SW-620 colon, 3.3 µM in the experiment with TK-10 renal, 3.15 µM with U251 CNS and 1.61 µM in the experiment with UO-31 renal. Moreover, the TGI in the experiment on BT-549 breast stood at 7.95 µM; in the experiment on EKVX NSCLC it was 16.7 µM; in the experiment with MALME-3M melanoma, 5.69 µM; with NCI-H226 lung, 33.9 µM; in the experiment on OVCAR-8 ovarian it was 12.1 µM; in the experiment on SF-539 CNS, 4.02 µM. For the same compound, the TGI with SW-620 colon stood at 11.5 µM; with TK-10 renal, 12.3 µM; in the experiment with U251 CNS it was 10.6 µM; with UO-31 renal it was 6.77 µM.
On to `C[N+](C)(C)CC(=O)N/N=C(\C(=O)NC1=C(Cl)C(=O)c2ccccc2C1=O)C(C#N)c1nc(-c2ccc([N+](=O)[O-])cc2)cs1` (centres undefined), for which the TGI is 15.1 µM in the experiment with BT-549 breast; 34.2 µM in the experiment with EKVX NSCLC; 3.97 µM with MALME-3M melanoma; 38.6 µM with NCI-H226 lung; 47.6 µM in the experiment with OVCAR-8 ovarian; 22.3 µM in the experiment on SF-539 CNS. Moreover, the TGI with SW-620 colon was 31.6 µM; with TK-10 renal it was 74.6 µM; in the experiment with U251 CNS, 26.4 µM; in the experiment with UO-31 renal, 31 µM.
In the case of `N#Cc1c(N)nc(N2CCOCC2)c(C#N)c1-c1ccccn1`, the GI50 in the experiment with BT-549 breast, in the experiment on EKVX NSCLC, in the experiment with MALME-3M melanoma, in the experiment with OVCAR-8 ovarian, with SF-539 CNS and in the experiment with SW-620 colon was > 100 µM in each case. Moreover, the GI50 in the experiment on TK-10 renal, in the experiment with U251 CNS and with UO-31 renal was > 100 µM in each case. The total growth inhibition concentration (TGI) with BT-549 breast, in the experiment on EKVX NSCLC, with MALME-3M melanoma, in the experiment with NCI-H226 lung, in the experiment on OVCAR-8 ovarian and in the experiment with SF-539 CNS was > 100 µM throughout. The concentration for total growth inhibition (TGI) in the experiment with SW-620 colon, in the experiment on TK-10 renal, in the experiment with U251 CNS and with UO-31 renal was > 100 µM each time.
For the compound `CC([C@H]1CCC2C3CCC4C[C@@H](N)CC[C@]4(C)C3CC[C@@]21C)N(C)C` (some centres undefined), the GI50 in the experiment on BT-549 breast is 5.9 µM; with EKVX NSCLC, 13.8 µM; in the experiment with MALME-3M melanoma it was 1.88 µM; in the experiment on NCI-H226 lung, 12.4 µM; in the experiment with OVCAR-8 ovarian, 15.7 µM; in the experiment with SF-539 CNS, 2.01 µM. The GI50 in the experiment on SW-620 colon is 2.74 µM; with TK-10 renal, 12 µM; with U251 CNS, 3.61 µM; in the experiment on UO-31 renal it was 2.34 µM. Moreover, the concentration for total growth inhibition (TGI) was 28.1 µM with BT-549 breast; 54.8 µM with EKVX NSCLC; 5.11 µM with MALME-3M melanoma; > 45.9 µM with NCI-H226 lung; > 53.6 µM in the experiment on OVCAR-8 ovarian; 4.98 µM with SF-539 CNS. Moreover, the total growth inhibition concentration (TGI) amounted to 7.73 µM in the experiment with SW-620 colon, 28.3 µM in the experiment with TK-10 renal, 15.6 µM in the experiment with U251 CNS and 7.74 µM in the experiment on UO-31 renal.
As for `CC(=[N-])N1CCC[C@@H](Nc2c3ccccc3nc3ccccc23)C1.[Cl][Pt].[NH-]CCC[NH-]`, the GI50 was 2.9 µM with BT-549 breast; 2.17 µM with EKVX NSCLC; 1.49 µM in the experiment on MALME-3M melanoma; 0.0328 µM in the experiment with NCI-H226 lung; 1.04 µM with OVCAR-8 ovarian; 2.53 µM with SF-539 CNS. Further, the concentration for 50% growth inhibition (GI50) is 0.268 µM in the experiment with SW-620 colon, 2.76 µM in the experiment on TK-10 renal, 1.58 µM with U251 CNS and 1.78 µM in the experiment on UO-31 renal. Further, the concentration for total growth inhibition (TGI) with BT-549 breast is 64.7 µM; with EKVX NSCLC, 36 µM; with MALME-3M melanoma, 4.51 µM; with NCI-H226 lung it was 0.2 µM; in the experiment on OVCAR-8 ovarian, > 100 µM; in the experiment with SF-539 CNS, 18.1 µM. Further, the TGI with SW-620 colon was > 100 µM; in the experiment on TK-10 renal it was > 46.1 µM; in the experiment on U251 CNS it was > 100 µM; in the experiment with UO-31 renal, 9.21 µM.
